Test results from patent publication US4262008A, “2,4-Disubstituted 5-oxo-5H-hexahydrofuro[3,2b]pyrroles” (Beecham Group Limited, priority 1978, dated 1981).
pIC50: −log10 of the molar value. Like-named read-outs stand apart in the source and are kept apart here.

Columns and labels:
[1] = test system: platelet aggregation in response to A.D.P. (human platelet-rich plasma); assay: Platelet aggregation in vitro, response to A.D.P.; format: cell-based; details: human P.R.P., 37° C., 3 min preincubation, 50% inhibition of first-phase aggregation response, read-out: IC50 vs. ADP
Method: (§1) Human blood (20 ml) is drawn into a plastic syringe and immediately anti-coagulated by mixing with 0.1 volumes of 3.8% (w/v) trisodium citrate dihydrate. Platelet-rich plasma (P.R.P.) is prepared by centrifuging the anticoagulated blood of 180 g, for 12 minutes, at room temperature. Collagen "Collagen-reagent Horm" (Hormon-Chemie Munchem, Postfach 101, Germany) is dilated as necessary with 0.9% (w/v) saline and kept on ice. Adenosine 5'-diphosphate (A.D.P.) (Grade 1: sodium salt from equine muscle, Sigma.) is diluted, as necessary with 0.9% saline, from a 10 mM stock solution, pH 6.8 kept at -20° C. The compounds are dissolved freshly to 40 mM in dimethylformamide. P.R.P. is mixed with 0.1 volumes saline and 0.005 volumes compound on dimethylformamide (control) and incubated at 37° C. for 3 minutes before the addition of collagen.
(§2) Platelet aggregation in response to collagen and A.D.P. is measured photometrically (Born G.V.R., 1962, Nature, 194 927) in a Bryston aggregometer coupled to a Vitatron linear pen recorder. The concentration of collagen producing a just-maximal change in light transmittance and the concentration of A.D.P. to produce only a first-phase aggregation response are established in each control P.R.P. The concentration of compounds to inhibit these control response by 50% in each case are determined.

[2] = test system: platelet aggregation in response to collagen (human platelet-rich plasma); assay: Platelet aggregation in vitro, response to collagen; format: cell-based; details: human P.R.P., 37° C., 3 min preincubation, 50% inhibition of just-maximal collagen response
Method: as §1, §2

[3] = test system: histamine induced changes in pulmonary resistance and lung compliance; assay: Inhibition of histamine induced changes in pulmonary resistance and lung compliance in anaesthetised spontaneously respiring guinea pig; format: in vivo; details: Cavia porcellus, iv
Method: 2. The compounds were tested for their ability to inhibit histamine induced changes in pulmonary resistance and lung compliance in the anaesthetised spontaneously respiring guinea pig. The compounds were administered intravenously.

[4] = test system: 5-hydroxytryptamine induced bronchoconstriction; assay: Inhibition of 5-hydroxytryptamine induced bronchoconstriction in anaesthetised, artificially respired guinea pig (Konzett-Rossler preparation); format: in vivo
Method: 1. The compounds were examined for their ability to inhibit 5-hydroxytryptamine induced bronchoconstriction in the anaesthetised, artificially respired guinea pig (Konzett-Rossler preparation). The compounds were administered intravenously.

[5] = test system: bronchoconstriction induced by an histamine aerosol; assay: Protection of conscious guinea pigs against bronchoconstriction induced by histamine aerosol (Herxheimer test); format: in vivo, guinea pig; details: aerosol generated from a 100 μg/ml solution
Method: 3. The compounds were also examined for their ability to protect conscious guinea pigs against bronchoconstriction induced by an histamine aerosol (Herxheimer test). In these experiments the compounds were administered by aerosol administration.

Row | pIC50 ([1]; Homo sapiens, Platelet) | pIC50 ([2]; Homo sapiens, Platelet) | SMILES | also measured
1 | 4.00 | 4.77 | CCOC(=O)CCCCC1CC2C(CC(=O)N2CCC(C)(O)CC2CCCCC2)O1 (stereo not shown) [Example 5, 2-(4'-ethoxycarbonyl-n-butyl)-4-(3"-hydroxy-3"-hydroxy-3"-methyl-4"-cyclohexyl-n-butyl)5-oxo-5H-hexahydro-furo [3-2b]pyrrole] | 
2 | 5.60 | 5.92 | CCOC(=O)CCCCCC1CC2C(CC(=O)N2CCC(C)(O)C2CCCCC2)O1 (stereo not shown) [Example 6, 2-(5'-ethoxycarbonyl-n-pentyl)-4-(3"-hydroxy-3"-cyclohexyl-n-butyl)-5-oxo-5H-hexahydro-furo[3,2b]pyrrole] | 
3 |  |  | CCCCCCC(O)CCN1C(=O)CC2OC(CCCCC(=O)OCC)CC21 (single isomer, unassigned) [Example 4 (Higher Rf epimer), 2-(4'-ethoxycarbonyl-n-butyl)-4-(3"-hydroxy-n-nonyl)-5-oxo-5H-hexahydrofuro[3,2b]pyrrole] | pIC50 [1]: 5.13; pIC50 [2]: 5.54
4 | 4.46 | 5.06 | CCCCCCC(C)(O)CCN1C(=O)CC2OC(CCCCC(=O)OCC)CC21 (stereo not shown) [Example 1, 2-(4'-Ethoxycarbonyl-n-butyl)-4-(3"-hydroxy-3"-methyl-n-nonyl)-5-oxo-5H-hexahydro-furo[3,2-b]pyrrole] | ED50 ([3]; lung compliance, read-out: ED 50 against compliance changes): 0.046 mg/kg; ED50 ([3]; pulmonary resistance, read-out: ED 50 against resistance changes): 0.033 mg/kg; ED50 ([4]; Cavia porcellus, iv, mean of 3 experiments, read-out: ED 50 against 5-hydroxytryptamine induced bronchoconstriction): 0.131 mg/kg; ED 50 range against 5-hydroxytryptamine induced bronchoconstriction ([4]; i.v., range of 3 experiments): 0.115 to 0.15 mg/kg; protection against histamine challenge [5]: highly significant protection
5 |  |  | CCCCCCC(O)CCN1C(=O)CC2OC(CCCCC(=O)OCC)CC21 (single isomer, unassigned) [Example 4 (Lower Rf epimer), 2-(4'-ethoxycarbonyl-n-butyl)-4-(3"-hydroxy-n-nonyl)-5-oxo-5H-hexahydrofuro[3,2b]pyrrole] | pIC50 [1]: 3.92; pIC50 [2]: 4.55
6 | 5.31 | 5.77 | CCCCCC(O)CCN1C(=O)CC2OC(CCCCC(=O)OC)CC21 (stereo not shown) [Example 3, 4-(3"-Hydroxy-n-octyl)-2-(4'-methoxycarbonyl-n-butyl)-5-oxo-5H-hexahydrofuro[3,2-b]pyrrole] | 
7 | 6.27 | 6.59 | CCOC(=O)CCCCC1CC2C(CC(=O)N2CCC(C)(O)C2CCCCC2)O1 (stereo not shown) [Example 7, 2-(5'-ethoxycarbonyl-n-butyl)-4-(3"-hydroxy-3"-cyclohexyl-n-butyl)-5-oxo-5H-hexahydro-furo[3,2b]pyrrole] | 
